# Source: patent US3975421A, “15-Substituted 11α-cyano-prostaglandins and related compounds” (American Home Products Corporation, priority 1974, dated 1976)
# System: adjuvant-induced arthritis in rats
# Assay: adjuvant-induced arthritis in rats, per cent inhibition of paw swelling
# Type: in vivo, rat
# Settings: 0.5 mg/kg s.c. daily for sixteen days, male rats
# Description: In using the compounds of the invention to produce antiinflammatory effects in warm-blooded animals, they may be administered subcutaneously. The particular dosage to obtain the antiinflammatory effect will vary with the particular compound employed and the degree of antiinflammatory response desired. The antiinflammatory response produced upon subcutaneous administration can be observed by the method described by Newbould, B. B. in Brit. J. Pharm. Chemoth., 21, 127 (1963) and Rosenthale, M. E., and Nagra, C. L. in Proc. Soc. Exp. Biol. and Med., 125, 149 (1967). In this procedure, adjuvant-induced arthritis is induced in rats by injection of dead mycobacteria into the hind footpad. The test compound is administered subcutaneously daily for sixteen consecutive days beginning with the day of injection. The injected foot swells rapidly during the first 4 to 6 days. Thereafter, the swelling subsides until the 8th day, and then it resumes. About 4 to 10 days after injection, the other hind paw (un-injected) becomes swollen and other inflammatory nodules may be found in the ear and tail. The swelling of the injected paw at day 4 is taken as an indication of an acute inflammatory response. The swelling of the same paw at day 16 is taken as a delayed inflammatory response. The swelling of the other hind paw at day 16 is taken as a delayed hypersensitivity reaction. Active antiinflammatory compounds reduce the swelling in either the acute and/or the delayed phases. […] The percent protection against swelling, as compared to non-treated controls, is calculated and is used as a measure of antiinflammatory activity.
# Male rats are randomly dispersed into groups. […] On day 4, the volume of the injected (right) foot is measured by means of a mercury plethysmograph. On day 16, the volumes of both the injected, right foot and the left hind foot are measured. The ability of the test compound to protect against acute and delayed swelling is measured by calculating the per cent decrease in volume of the test animals as compared to controls. […]
structure (smiles),measurement,setting,value
CCCCCC(C)(O)/C=C/[C@H]1[C@H](C#N)CC(O)[C@@H]1CCCCCCC(=O)O (stereo partly drawn) [3α-cyano-5(RS)-hydroxy-2β-[(3RS)-3-hydroxy-3-methyl-trans-1-octenyl]-1α-cyclopentaneheptanoic acid],"% Inhibition of Swelling, Day 4, Rt. Paw","injected right paw, day 4 (acute)",25%
same,"% Inhibition of Swelling, Day 16, Rt. Paw","injected right paw, day 16 (delayed)",31%
same,"% Inhibition of Swelling, Day 16, Left Paw","un-injected left paw, day 16 (delayed hypersensitivity)",35%
